In test [1] the target is purified human farnesyl protein transferase (Homo sapiens, UniProt P49354+P49356). Briefly: FPT activity: transfer of [3H] farnesyl from [3H] farnesyl pyrophosphate to biotinylated H-ras peptide (SPA). To be noted: ranges are stated for a listed group of compounds; range ends given as 'about <' / 'about >'. The format is biochemical. As for the experimental part:
FPT activity was determined by measuring the transfer of [^3H] farnesyl from [^3H] farnesyl pyrophosphate to a biotinylated peptide derived from the C-terminus of H-ras (biotin-CVLS). The reaction mixture contains: 50 mM Tris pH7.7, 5 mM MgCl2, 5 μM Zn^++, 5 mM DTT, 0.1% Triton-X, 0.05 μM peptide, 0.03 nM purified human farnesyl protein transferase, 0.180 μM [^3H] farnesyl pyrophosphate, plus the indicated concentration of tricyclic compound or vehicle control in a total volume of 100 μl. The reaction was incubated in a Vortemp shaking incubator at 37° C., 45 RPM for 60 minutes and stopped with 150 μl of 0.25 M EDTA containing 0.5% BSA and 1.3 mg/ml Streptavidin SPA beads. Radioactivity was measured in a Wallach 1450 Microbeta liquid scintillation counter. Percent inhibition was calculated relative to the vehicle control.

For a further test, the system named is Human tumor cells. Kind of test: Soft Agar Assay (anchorage-independent growth, colony count). Particulars: ranges are stated for a listed group of compounds, range ends given as 'about <' / 'about >'. The format is cell-based. The method, then: Anchorage-independent growth is a characteristic of tumorigenic cell lines. Human tumor cells can be suspended in growth medium containing 0.3% agarose and an indicated concentration of a farnesyl transferase inhibitor. The solution can be overlayed onto growth medium solidified with 0.6% agarose containing the same concentration of farnesyl transferase inhibitor as the top layer. After the top layer is solidified, plates can be incubated for 10-16 days at 37° C. under 5% CO2 to allow colony outgrowth. After incubation, the colonies can be stained by overlaying the agar with a solution of MTT (3-[4,5-dimethyl-thiazol-2-yl]-2,5-diphenyltetrazolium bromide, Thiazolyl blue) (1 mg/mL in PBS). Colonies can be counted and the IC50's can be determined.

A word on the IC50: it is the concentration that gives 50% inhibition. Read a high IC50 as a need for much substance.

Where “and” joins values, the source holds several entries; their conditions need not be identical. Identical values can stand only once.

Turning to `Cc1cn(Cc2cccc(NC(=O)C3CN(C4c5ccc(Cl)cc5CCc5cccnc54)CCN3S(C)(=O)=O)c2)cn1` (centres unmarked) [(29.1)], the IC50 in test [1] is 0.05 to 8.9 nM and 0.05 to 2.7 nM and 0.05 to 1.2 nM.

For `O=C(Nc1cccc(Cn2ccnc2)c1)C1CN([C@@H]2c3ccc(Cl)cc3CCc3cccnc32)CCN1C(=O)OC1CCCCC1` (some centres unmarked) [(15.2)], the IC50 in test [1] was 0.05 to 8.9 nM and 0.05 to 2.7 nM and 0.05 to 1.2 nM; in the test with Human tumor cells (Homo sapiens), 0.3 to 50 nM.

As to `Cc1cn(Cc2cccc(NC(=O)C3CN(C4c5ccc(Cl)cc5CCc5cccnc54)CCN3C(=O)Nc3ccc(Cl)cc3)c2)cn1` (centres unmarked) [(27.1)], the IC50 in test [1] lay within 0.05 to 8.9 nM.

Take `O=C(Nc1cccc(Cn2ccnc2)c1)[C@H]1CN(C2c3ccc(Cl)cc3CCc3cccnc32)CCN1` (mixture of isomers) [(14.2)]: the IC50 in test [1] was in the range of 0.05 to 8.9 nM; in the test on Human tumor cells (Homo sapiens) it was 0.3 to 50 nM.

For the compound `Cc1cn(Cc2cccc(NC(=O)C3CN(C4c5ccc(Cl)cc5CCc5cc(Br)cnc54)CCN3)c2)cn1` (centres unmarked) [(4.3)], the figures for the IC50 (in test [1]; in the test on Human tumor cells (Homo sapiens)) were 0.05 to 8.9 nM and 0.3 to 50 nM, respectively.

In turn, `CC(C)(C)OC(=O)N1CCN([C@@H]2c3ccc(Cl)cc3CCc3cccnc32)C(C(=O)Nc2cccc(Cn3ccnc3)c2)C1` (some centres unmarked) [(40.2)] showed an IC50 in the test with Human tumor cells (Homo sapiens) of 0.3 to 50 nM.

For `Cc1cncn1Cc1cccc(NC(=O)C2CN(C3c4ccc(Cl)cc4CCc4cccnc43)CCN2C(=O)OC2CCCCC2)c1` (single isomer, unassigned) [(32.2)], the IC50 in test [1] lay in the range of 0.05 to 8.9 nM.

With `Cc1cn(Cc2cccc(NC(=O)C3CN([C@@H]4c5ccc(Cl)cc5CCc5cc(Br)cnc54)CCN3)c2)cn1` (some centres unmarked) [(4.2)], the IC50 in test [1] is 0.05 to 8.9 nM; with Human tumor cells (Homo sapiens), 0.3 to 50 nM.

Turning to `O=C(C1CN(C2c3ccc(Cl)cc3CCc3cccnc32)CCN1C(=O)OC1CCCCC1)N(Cc1ccccc1)c1cccc(Cn2ccnc2)c1` (centres unmarked) [(16.1)], the concentration for half-maximal inhibition (IC50) fell in the range of 0.05 to 8.9 nM in test [1] and 0.3 to 50 nM with Human tumor cells (Homo sapiens).

As for `Cc1cn(Cc2cccc(NC(=O)C3CN(C4c5ccc(Cl)cc5CCc5cc(Br)cnc54)CCN3C(=O)NC3CCCCC3)c2)cn1` (centres unmarked) [(6.1)], the IC50 is 0.05 to 8.9 nM and 0.05 to 2.7 nM in test [1]; 0.3 to 50 nM with Human tumor cells (Homo sapiens).

Compound `Cc1nccn1Cc1cccc(NC(=O)C2CN(C3c4ccc(Cl)cc4CCc4cccnc43)CCN2C(=O)OC2CCCCC2)c1` (centres unmarked) [(31.1)] came in with an IC50 in the test with Human tumor cells of less than 0.5 nM.

As for `CC(C)(C)OC(=O)N1CCN(C2c3ccc(Cl)cc3CCc3cc(Br)cnc32)CC1C(=O)Nc1cccc(Cn2ccnc2)c1` (single isomer, unassigned) [(1.3)], the IC50 was 0.05 to 8.9 nM and 0.05 to 2.7 nM and 0.05 to 1.2 nM in test [1]; 0.3 to 50 nM in the test on Human tumor cells (Homo sapiens).

As for `NC(=O)N1CCC(CC(=O)N2CCN(C3c4ccc(Cl)cc4CCc4cccnc43)C(C(=O)Nc3cccc(Cn4ccnc4)c3)C2)CC1` (centres unmarked) [(45.1)], the IC50 in test [1] is 0.05 to 8.9 nM; in the test on Human tumor cells (Homo sapiens) it was 0.3 to 50 nM.

On to `O=C(Nc1cccc(Cn2ccnc2)c1)[C@H]1CNCCN1C1c2ccc(Cl)cc2CCc2cccnc21` (some centres unmarked) [(14.3)], for which the IC50 in test [1] lay within 0.05 to 8.9 nM; with Human tumor cells (Homo sapiens) it was 0.3 to 50 nM.

Turning to `Cc1cn(Cc2cccc(NC(=O)C3CN([C@@H]4c5ccc(Cl)cc5CCc5cccnc54)CCN3C(=O)OC3CCCCC3)c2)cn1` (some centres unmarked) [(22.1)], the IC50 is 0.05 to 8.9 nM and 0.05 to 2.7 nM and 0.05 to 1.2 nM in test [1]; 0.3 to 50 nM in the test with Human tumor cells (Homo sapiens).

In the test on Human tumor cells (Homo sapiens), `CC(C)(C)OC(=O)N1CCN(C2c3ccc(Cl)cc3CCc3cccnc32)C(C(=O)Nc2cccc(Cn3ccnc3)c2)C1` (centres unmarked) [(40.1)] yielded an IC50 of 0.3 to 50 nM.

As to `Cc1cn(Cc2cccc(NC(=O)C3CN([C@@H]4c5ccc(Cl)cc5CCc5cc(Br)cnc54)CCN3C(=O)NC3CCCCC3)c2)cn1` (some centres unmarked) [(5.1)], the IC50 was 0.05 to 8.9 nM and 0.05 to 2.7 nM in test [1]; 0.3 to 50 nM in the test with Human tumor cells (Homo sapiens).

Consider `O=C(Nc1cccc(Cn2ccnc2)c1)C1CN(C2c3ccc(Cl)cc3CCc3cccnc32)CCN1C(=O)OC1CCCCC1` (centres unmarked) [(15.1)], for which the concentration for half-maximal inhibition (IC50) in test [1] was 0.05 to 8.9 nM and 0.05 to 2.7 nM and 0.05 to 1.2 nM; in the test on Human tumor cells (Homo sapiens), 0.3 to 50 nM.

For `Cc1cn(Cc2cccc(NC(=O)C3CN([C@@H]4c5ccc(Cl)cc5CCc5cccnc54)CCN3C(=O)CC3CCN(C(N)=O)CC3)c2)cn1` (some centres unmarked) [(30.1)], the half-maximal inhibitory concentration (IC50) is 0.05 to 8.9 nM and 0.05 to 2.7 nM and 0.05 to 1.2 nM in test [1]; 0.3 to 50 nM in the test with Human tumor cells (Homo sapiens).

Consider `CC(C)(C)OC(=O)N1CCN(C2c3ccc(Cl)cc3CCc3cc(Br)cnc32)CC1C(=O)Nc1cccc(Cn2ccnc2)c1` (single isomer, unassigned) [(1.4)], for which the IC50 in test [1] is 0.05 to 8.9 nM and 0.05 to 2.7 nM and 0.05 to 1.2 nM.

`O=C(Nc1cccc(Cn2ccnc2)c1)[C@@H]1CN(C2c3ccc(Cl)cc3CCc3cc(Br)cnc32)CCN1` (some centres unmarked) [(12.2)] yielded an IC50 in test [1] of 0.05 to 8.9 nM.

For the compound `Cc1cn(CCc2ccccc2NC(=O)[C@H]2CN([C@H]3c4ccc(Cl)cc4CCc4cccnc43)CCN2C(=O)OC2CCCCC2)cn1` [(47.1)], the IC50 in test [1] fell in the range of 0.05 to 8.9 nM.

Consider `O=C(Nc1cccc(Cn2ccnc2)c1)[C@H]1CN(C2c3ccc(Cl)cc3CCc3cccnc32)CCN1C1c2ccc(Cl)cc2CCc2cccnc21` (some centres unmarked) [(14.1)], for which the IC50 with Human tumor cells (Homo sapiens) lay within 0.3 to 50 nM.

For the compound `Cc1cn(Cc2cccc(NC(=O)C3CN(C4c5ccc(Cl)cc5CCc5cccnc54)CCN3C(=O)NC3CCCCC3)c2)cn1` (centres unmarked) [(26.1)], the IC50 in test [1] was 0.05 to 8.9 nM and 0.05 to 2.7 nM and 0.05 to 1.2 nM.

As for `Cc1cncn1Cc1cccc(NC(=O)C2CN(C3c4ccc(Cl)cc4CCc4cccnc43)CCN2C(=O)OC2CCCCC2)c1` (single isomer, unassigned) [(32.1)], the IC50 in test [1] is 0.05 to 8.9 nM and 0.05 to 2.7 nM and 0.05 to 1.2 nM; in the test on Human tumor cells (Homo sapiens) it was 0.3 to 50 nM.

For `Cc1cn(Cc2cccc(NC(=O)C3CN(C4c5ccc(Cl)cc5CCc5cccnc54)CCN3C(=O)Cc3ccc(Cl)cc3)c2)cn1` (centres unmarked) [(28.1)], the IC50 was 0.05 to 8.9 nM and 0.05 to 2.7 nM and 0.05 to 1.2 nM in test [1]; 0.3 to 50 nM in the test with Human tumor cells (Homo sapiens).

Turning to `Cc1cn(Cc2cccc(NC(=O)C3CN(C4c5ccc(Cl)cc5CCc5cccnc54)CCN3C(=O)OC3CCCCC3)c2)cn1` (centres unmarked) [(21.1)], the IC50 in test [1] is 0.05 to 8.9 nM and 0.05 to 2.7 nM and 0.05 to 1.2 nM; in the test on Human tumor cells (Homo sapiens), 0.3 to 50 nM.

In test [1], `O=C(Nc1cccc(Cn2ccnc2)c1)[C@@H]1CN(C2c3ccc(Cl)cc3CCc3cc(Br)cnc32)CCN1C1c2ccc(Cl)cc2CCc2cc(Br)cnc21` (some centres unmarked) [(12.1)] had a 50% inhibitory concentration (IC50) of 0.05 to 8.9 nM.

The record behind these values is patent publication US7635697B2, “Farnesyl protein transferase inhibitors and methods for treating proliferative diseases” (Schering Corporation, priority 2004, dated 2009).
